Reference: patent EP4755886A1 (Chengdu Chipscreen Pharmaceutical Ltd., priority 2023, dated 2025)

Columns and labels:
MTAP^-/- HCT-116 cells = assay: Cell proliferation (MTS), MTAP-/- HCT-116; type: cell-based, human; conditions: for Selectivity: HCT116 WT IC50 relative to HCT116 MTAP-/- IC50; for IC50: Homo sapiens, 240 h, MTAP-/- HCT-116, 10 days with compound, MTS reading, read-out: IC50 HCT116 MTAP-/-
Description: The colon cancer cell strain HCT-116 (purchased from Nanjing Cobioer) was co-transfected with the gene editing tool CRISPR/Cas9 and sgRNA, and the MTAP^-/- HCT-116 cell strain with biallelic inactivation of MTAP was obtained by assays such as Western Blotting and Sanger sequencing. The MTAP^-/- HCT-116 cell strain was used for compound selectivity screening and evaluation based on the synergistic mechanism of MTAP deletion and PRMT5, including a symmetric dimethylarginine (SDMA) level test, a cell proliferation test, and the like.
On day 0, MTAP^-/- HCT-116 cells or wild-type HCT-116 cells were added to a 96-well cell culture plate (Corning, 3599) at 100 cells/well, and the plate was incubated in an incubator at 37 °C with 5% CO2. The compound was diluted in a 3-fold gradient with DMSO (Sigma, D5879) (initial concentration: 20 µM, 3-fold dilution, 8 concentration points in total). On day 1, the compound was diluted to multiple concentration points, and the cells were treated separately and incubated in the incubator at 37 °C with 5% CO2 for another 10 days. On Day 11, 20 µL of MTS (CellTiter 96® AQueous One Solution Cell Proliferation Assay) (Promega, G3581) was added to each well. […] In the formula, Y represents the inhibition rate, X represents the logarithm of the compound concentration, Top represents the maximum response (the inhibition rate at the maximum compound concentration), Bottom represents the baseline response (the inhibition rate where the compound concentration was 0), Hill Slope represents the slope of the IC50 curve, and IC50 represents the half maximal inhibitory concentration.

wild-type HCT-116 cells = assay: Cell proliferation (MTS), wild-type HCT-116; type: cell-based; conditions: Homo sapiens, 240 h; wild-type HCT-116, 10 days with compound, MTS reading; read-out: IC50 HCT116 WT
Description: MTAP^-/- HCT-116 and wild-type HCT-116 cell strains were cultured in complete medium McCoy's 5A (Gibco, 16600082)/10% FBS (Gibco, 10099141C)/1% p/s (Gibco, 15140122) to evaluate the enhanced inhibitory effect of the compounds against the proliferation selectivity of MTAP^-/- HCT-116 cells. On day 0, MTAP^-/- HCT-116 cells or wild-type HCT-116 cells were added to a 96-well cell culture plate (Corning, 3599) at 100 cells/well, and the plate was incubated in an incubator at 37 °C with 5% CO2. The compound was diluted in a 3-fold gradient with DMSO (Sigma, D5879) (initial concentration: 20 µM, 3-fold dilution, 8 concentration points in total). On day 1, the compound was diluted to multiple concentration points, and the cells were treated separately and incubated in the incubator at 37 °C with 5% CO2 for another 10 days. On Day 11, 20 µL of MTS (CellTiter 96® AQueous One Solution Cell Proliferation Assay) (Promega, G3581) was added to each well. […] In the formula, Y represents the inhibition rate, X represents the logarithm of the compound concentration, Top represents the maximum response (the inhibition rate at the maximum compound concentration), Bottom represents the baseline response (the inhibition rate where the compound concentration was 0), Hill Slope represents the slope of the IC50 curve, and IC50 represents the half maximal inhibitory concentration. Table 1. IC50 (µM)

`Cc1cncc(C#Cc2ccc3c(c2)OC[C@H]3N(C)C(=O)c2cc3c(cc2F)nc(N)c2cnn(C)c23)c1` [Compound 47A, (S)-4-amino-7-fluoro-N,1-dimethyl-N-(6-((5-methylpyridin-3-yl)ethynyl)-2,3-dihydrobenzofuran-3-yl)-1H-pyrazolo[4,3-c]quinoline-8-carboxamide] gave a Selectivity (MTAP^-/- HCT-116 cells) of 115, an IC50 (MTAP^-/- HCT-116 cells) of 5.2 nM and an IC50 (wild-type HCT-116 cells) of 598 nM.
In the case of `CC(C)n1cc(C#Cc2ccc3c(c2)OC[C@H]3N(C)C(=O)c2ccc3nc(N)c4cnn(C)c4c3c2)cn1` [Compound 19A, (S)-4-amino-N-(6-((1-isopropyl-1H-pyrazol-4-yl)ethynyl)-2,3-dihydrobenzofuran-3-yl)-N,1-dimethyl-1H-pyrazolo[4,3-c]quinoline-8-carboxamide], the Selectivity (MTAP^-/- HCT-116 cells) is reported as 149, the IC50 (MTAP^-/- HCT-116 cells) is reported as 8.7 nM and the IC50 (wild-type HCT-116 cells) is reported as 1300 nM.
Molecule `Cc1cn(C)nc1C#Cc1ccc2c(c1)OCC2N(C)C(=O)c1cc2c(cc1F)nc(N)c1cnn(C)c12` (stereo not drawn) [Compound 37, 4-amino-N-(6-((1,4-dimethyl-1H-pyrazol-3-yl)ethynyl)-2,3-dihydrobenzofuran-3-yl)-7-fluoro-N,1-dimethyl-1H-pyrazolo[4,3-c]quinoline-8-carboxamide] has a Selectivity (MTAP^-/- HCT-116 cells) of 93, an IC50 (MTAP^-/- HCT-116 cells) of 22 nM and an IC50 (wild-type HCT-116 cells) of 2040 nM.
For `CN(C(=O)c1cc2c3c(c(N)nc2cc1Cl)COC3)[C@@H]1COc2cc(C#Cc3cn(C)nc3Cl)ccc21` [Compound 68A, (S)-4-amino-7-chloro-N-(6-((3-chloro-1-methyl-1H-pyrazol-4-yl)ethynyl)-2,3-dihydrobenzofuran-3-yl)-N-methyl-1,3-dihydrofuro[3,4-c]quinoline-8-carboxamide], the Selectivity (MTAP^-/- HCT-116 cells) was 47, the IC50 (MTAP^-/- HCT-116 cells) was 6.6 nM and the IC50 (wild-type HCT-116 cells) was 312 nM.
With `Cc1ccncc1C#Cc1ccc2c(c1)OC[C@H]2N(C)C(=O)c1cc2c(cc1Cl)nc(N)c1cnn(C)c12` [Compound 63A, (S)-4-amino-7-chloro-N,1-dimethyl-N-(6-((4-methylpyridin-3-yl)ethynyl)-2,3-dihydrobenzofuran-3-yl)-1H-pyrazolo[4,3-c]quinoline-8-carboxamide] the Selectivity (MTAP^-/- HCT-116 cells) was 43, the IC50 (MTAP^-/- HCT-116 cells) was 2 nM and the IC50 (wild-type HCT-116 cells) was 85 nM.
Molecule `Cc1ccncc1C#Cc1ccc2c(c1)OCC2N(C)C(=O)c1cc2c(cc1F)nc(N)c1cnn(C)c12` (stereo not drawn) [Compound 44, 4-amino-7-fluoro-N,1-dimethyl-N-(6-((4-methylpyridin-3-yl)ethynyl)-2,3-dihydrobenzofuran-3-yl)-1H-pyrazolo[4,3-c]quinoline-8-carboxamide] has a Selectivity (MTAP^-/- HCT-116 cells) of 67, an IC50 (MTAP^-/- HCT-116 cells) of 11 nM and an IC50 (wild-type HCT-116 cells) of 736 nM.
`CN(C(=O)c1ccc2nc(N)c3c(c2c1)COC3)C1COc2cc(C#Cc3cnn(C)c3)ccc21` (racemic) [Compound 3, 4-amino-N-methyl-N-(6-((1-methyl-1H-pyrazol-4-yl)ethynyl)-2,3-dihydrobenzofuran-3-yl)-1,3-dihydrofuran[3,4-c]quinoline-8-carboxamide] showed a Selectivity (MTAP^-/- HCT-116 cells) of 160, an IC50 (MTAP^-/- HCT-116 cells) of 27 nM and an IC50 (wild-type HCT-116 cells) of 4310 nM.
`CN(C(=O)c1cc2c(cc1F)nc(N)c1cnn(C)c12)C1COc2cc(C#Cc3cnn(C4CC4)c3)ccc21` (stereo not drawn) [Compound 12, 4-amino-N-(6-((1-cyclopropyl-1H-pyrazol-4-yl)ethynyl)-2,3-dihydrobenzofuran-3-yl)-7-fluoro-N,1-dimethyl-1H-pyrazolo[4,3-c]quinoline-8-carboxamide] gave a Selectivity (MTAP^-/- HCT-116 cells) of 81, an IC50 (MTAP^-/- HCT-116 cells) of 8 nM and an IC50 (wild-type HCT-116 cells) of 650 nM.
Work on `CN(C(=O)c1cc2c(cc1Cl)nc(N)c1cnn(C)c12)[C@@H]1COc2cc(C#Cc3cnn(C(F)F)c3)ccc21` [Compound 67A, (S)-4-amino-7-chloro-N-(6-((1-(difluoromethyl)-1H-pyrazol-4-yl)ethynyl)-2,3-dihydrobenzofuran-3-yl)-N,1-dimethyl-1H-pyrazolo[4,3-c]quinoline-8-carboxamide] yielded a Selectivity (MTAP^-/- HCT-116 cells) of 43, an IC50 (MTAP^-/- HCT-116 cells) of 2 nM and an IC50 (wild-type HCT-116 cells) of 85 nM.
For `Cc1c(C#Cc2ccc3c(c2)OCC3N(C)C(=O)c2cc3c(cc2Cl)nc(N)c2cnn(C)c23)cnn1C` (stereo not drawn) [Compound 22, 4-amino-7-chloro-N-(6-((1,5-dimethyl-1H-pyrazol-4-yl)ethynyl)-2,3-dihydrobenzofuran-3-yl)-N,1-dimethyl-1H-pyrazolo[4,3-c]quinoline-8-carboxamide], the Selectivity (MTAP^-/- HCT-116 cells) was 50, the IC50 (MTAP^-/- HCT-116 cells) was 1.9 nM and the IC50 (wild-type HCT-116 cells) was 95 nM.
`CN(C(=O)c1cc2c(cc1F)nc(N)c1cnn(C)c12)C1COc2cc(C#Cc3ccnn3C)ccc21` (stereo not drawn) [Compound 36, 4-amino-7-fluoro-N,1-dimethyl-N-(6-((1-methyl-1H-pyrazol-5-yl)ethynyl)-2,3-dihydrobenzofuran-3-yl)-1H-pyrazolo[4,3-c]quinoline-8-carboxamide] showed a Selectivity (MTAP^-/- HCT-116 cells) of 126, an IC50 (MTAP^-/- HCT-116 cells) of 13.7 nM and an IC50 (wild-type HCT-116 cells) of 1730 nM.
With `CN(C(=O)c1cc2c(cc1F)nc(N)c1cnn(C)c12)C1COc2cc(C#Cc3ccn(C)n3)ccc21` (stereo not drawn) [Compound 21, 4-amino-7-fluoro-N,1-dimethyl-N-(6-((1-methyl-1H-pyrazol-3-yl)ethynyl)-2,3-dihydrobenzofuran-3-yl)-1H-pyrazolo[4,3-c]quinoline-8-carboxamide] the Selectivity (MTAP^-/- HCT-116 cells) was 52, the IC50 (MTAP^-/- HCT-116 cells) was 7 nM and the IC50 (wild-type HCT-116 cells) was 365 nM.
For `Cc1c(C#Cc2ccc3c(c2)OCC3N(C)C(=O)c2cc3c(cc2F)nc(N)c2cnn(C)c23)cnn1C` (stereo not drawn) [Compound 23, 4-amino-N-(6-((1,5-dimethyl-1H-pyrazol-4-yl)ethynyl)-2,3-dihydrobenzofuran-3-yl)-7-fluoro-N,1-dimethyl-1H-pyrazolo[4,3-c]quinoline-8-carboxamide], the Selectivity (MTAP^-/- HCT-116 cells) was 77, the IC50 (MTAP^-/- HCT-116 cells) was 4 nM and the IC50 (wild-type HCT-116 cells) was 307 nM.
With `CN(C(=O)c1cc2c(cc1Cl)nc(N)c1cnn(C)c12)C1COc2cc(C#Cc3cnn(C)c3)ccc21` (stereo not drawn) [Compound 9, 4-amino-7-chloro-N,1-dimethyl-N-(6-((1-methyl-1H-pyrazol-4-yl)ethynyl)-2,3-dihydrobenzofuran-3-yl)-1H-pyrazolo[4,3-c]quinoline-8-carboxamide] the Selectivity (MTAP^-/- HCT-116 cells) was 109, the IC50 (MTAP^-/- HCT-116 cells) was 0.9 nM and the IC50 (wild-type HCT-116 cells) was 97.7 nM.
Molecule `CN(C(=O)c1cc2c(cc1F)nc(N)c1cnn(C)c12)C1COc2nc(C#Cc3cnn(C)c3)ccc21` (stereo not drawn) [Compound 33, 4-amino-7-fluoro-N,1-dimethyl-N-(6-((1-methyl-1H-pyrazol-4-yl)ethynyl)-2,3-dihydrofuro[2,3-b]pyridin-3-yl)-1H-pyrazolo[4,3-c]quinoline-8-carboxamide] has a Selectivity (MTAP^-/- HCT-116 cells) of 129, an IC50 (MTAP^-/- HCT-116 cells) of 4.4 nM and an IC50 (wild-type HCT-116 cells) of 567 nM.
Molecule `CN(C(=O)c1cc2c(cc1Cl)nc(N)c1cnn(C)c12)C1COc2cc(C#Cc3cnn(C4CC4)c3)ccc21` (stereo not drawn) [Compound 8, 4-amino-7-chloro-N-(6-((1-cyclopropyl-1H-pyrazol-4-yl)ethynyl)-2,3-dihydrobenzofuran-3-yl)-N,1-dimethyl-1H-pyrazolo[4,3-c]quinoline-8-carboxamide] has a Selectivity (MTAP^-/- HCT-116 cells) of 47, an IC50 (MTAP^-/- HCT-116 cells) of 3 nM and an IC50 (wild-type HCT-116 cells) of 141 nM.
`CN(C(=O)c1cc2c(cc1F)nc(N)c1cnn(C)c12)C1COc2cc(C#Cc3cn(C)nc3C(F)(F)F)ccc21` (stereo not drawn) [Compound 32, 4-amino-7-fluoro-N,1-dimethyl-N-(6-((1-methyl-3-(trifluoromethyl)-1H-pyrazol-4-yl)ethynyl)-2,3-dihydrobenzofuran-3-yl)-1H-pyrazolo[4,3-c]quinoline-8-carboxamide] gave a Selectivity (MTAP^-/- HCT-116 cells) of 103, an IC50 (MTAP^-/- HCT-116 cells) of 22 nM and an IC50 (wild-type HCT-116 cells) of 2270 nM.
Molecule `CN(C(=O)c1cc2c(cc1F)nc(N)c1cnn(C)c12)C1COc2cc(C#Cc3cnccc3C(F)F)ccc21` (stereo not drawn) [Compound 42, 4-amino-N-(6-((4-(difluoromethyl)pyridin-3-yl)ethynyl)-2,3-dihydrobenzofuran-3-yl)-7-fluoro-N,1-dimethyl-1H-pyrazolo[4,3-c]quinoline-8-carboxamide] has a Selectivity (MTAP^-/- HCT-116 cells) of 42, an IC50 (MTAP^-/- HCT-116 cells) of 18.5 nM and an IC50 (wild-type HCT-116 cells) of 785 nM.
